Assay results as given in patent US6518243B1, “Desleucyl glycopeptide antibiotics and methods of making same” (Trustees of Princeton University, priority 1999, dated 2003).

Legend:
S. aureus (ATCC 29213) = experiment: Zone of inhibition screen, 96 well agar array format; assay type: cell-based; set-up: scale not given here
Procedure, shortened: (§1)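 Each compound was tested for antibacterial activity against a shared bacterial panel, with screening carried out on agar in a 96-well array.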

E. faecalis (CL 4877) = experiment: as above; assay type: cell-based; set-up: scale not given here
Procedure, shortened: as §1

[1] = zone of inhibition relative to 1 mg/ml stock solution of p-chlorobiphenylvancomycin
[2] = zone of inhibition relative to 1 mg/ml p-chlorobiphenylvancomycin

Row | Compound | zone score, S. aureus ATCC 29213 (S. aureus (ATCC 29213); [1]) | zone score, E. faecalis CL 4877 (E. faecalis (CL 4877); [1]) | zone score, S. aureus ATCC 29213 (S. aureus (ATCC 29213); [2]) | zone score, E. faecalis CL 4877 (E. faecalis (CL 4877); [2])
1 | CC1OC(OC2C(Oc3c4cc5cc3Oc3ccc(cc3Cl)C(O)C3NC(=O)C(NC(=O)C5NC(=O)C(CC(N)=O)NC(=O)C(NC(=O)C(CCC(N)=O)NC(=O)OC(C)(C)C)C(O)c5ccc(c(Cl)c5)O4)c4ccc(O)c(c4)-c4c(O)cc(O)cc4C(C(=O)O)NC3=O)OC(CO)C(O)C2O)CC(C)(NCc2ccc(-c3ccc(Cl)cc3)cc2)C1O (stereo not shown) [Compound 141] | 2 | 2 | – | –
2 | CC1OC(OC2C(Oc3c4cc5cc3Oc3ccc(cc3Cl)C(O)C(NC(=O)C(O)C(O)C(O)C(O)CO)C(=O)NC(CC(N)=O)C(=O)NC5C(=O)NC3C(=O)NC(C(=O)NC(C(=O)O)c5cc(O)cc(O)c5-c5cc3ccc5O)C(O)c3ccc(c(Cl)c3)O4)OC(CO)C(O)C2O)CC(C)(NCc2ccc(-c3ccc(Cl)cc3)cc2)C1O (stereo not shown) [Compound 157] | 2 | 2 | – | –
3 | CC1OC(OC2C(Oc3c4cc5cc3Oc3ccc(cc3Cl)[C@@H](O)[C@@H](NC(=O)[C@@H](CCCNC(=N)N)NC(N)=O)C(=O)N[C@@H](CC(N)=O)C(=O)N[C@H]5C(=O)NC3C(=O)N[C@H](C(=O)N[C@@H](C(=O)O)c5cc(O)cc(O)c5-c5cc3ccc5O)[C@H](O)c3ccc(c(Cl)c3)O4)OC(CO)C(O)C2O)CC(C)(NCc2ccc(-c3ccc(Cl)cc3)cc2)C1O (stereo partly shown) [Compound 187] | 2 | 2 | – | –
4 | CC1OC(OC2C(Oc3c4cc5cc3Oc3ccc(cc3Cl)C(O)C3NC(=O)C(NC(=O)C5NC(=O)C(CC(N)=O)NC(=O)C(NC(=O)C=CC(=O)NC(N)=O)C(O)c5ccc(c(Cl)c5)O4)c4ccc(O)c(c4)-c4c(O)cc(O)cc4C(C(=O)O)NC3=O)OC(CO)C(O)C2O)CC(C)(NCc2ccc(-c3ccc(Cl)cc3)cc2)C1O (stereo not shown) [Compound 189] | 2 | 2 | – | –
5 | CC(NC=O)C(=O)NC1C(=O)NC(CC(N)=O)C(=O)NC2C(=O)NC3C(=O)NC(C(=O)NC(C(=O)O)c4cc(O)cc(O)c4-c4cc3ccc4O)C(O)c3ccc(c(Cl)c3)Oc3cc2cc(c3OC2OC(CO)C(O)C(O)C2OC2CC(C)(NCc3ccc(-c4ccc(Cl)cc4)cc3)C(O)C(C)O2)Oc2ccc(cc2Cl)C1O (stereo not shown) [Compound 194] | 2 | 2 | – | –
6 | CC1OC(OC2C(Oc3c4cc5cc3Oc3ccc(cc3Cl)C(O)C3NC(=O)C(NC(=O)C5NC(=O)C(CC(N)=O)NC(=O)C(NC(=O)CNC(=O)c5cccnc5)C(O)c5ccc(c(Cl)c5)O4)c4ccc(O)c(c4)-c4c(O)cc(O)cc4C(C(=O)O)NC3=O)OC(CO)C(O)C2O)CC(C)(NCc2ccc(-c3ccc(Cl)cc3)cc2)C1O (stereo not shown) [Compound 197] | 2 | 2 | – | –
7 | CC1OC(OC2C(Oc3c4cc5cc3Oc3ccc(cc3Cl)C(O)C3NC(=O)C(NC(=O)C5NC(=O)C(CC(N)=O)NC(=O)C(NC(=O)C(=O)NNC(=N)N)C(O)c5ccc(c(Cl)c5)O4)c4ccc(O)c(c4)-c4c(O)cc(O)cc4C(C(=O)O)NC3=O)OC(CO)C(O)C2O)CC(C)(NCc2ccc(-c3ccc(Cl)cc3)cc2)C1O (stereo not shown) [Compound 199] | 2 | 2 | – | –
8 | CC1OC(OC2C(Oc3c4cc5cc3Oc3ccc(cc3Cl)C(O)C3NC(=O)C(NC(=O)C5NC(=O)C(CC(N)=O)NC(=O)C(NC(=O)C(N)=O)C(O)c5ccc(c(Cl)c5)O4)c4ccc(O)c(c4)-c4c(O)cc(O)cc4C(C(=O)O)NC3=O)OC(CO)C(O)C2O)CC(C)(NCc2ccc(-c3ccc(Cl)cc3)cc2)C1O (stereo not shown) [Compound 200] | 2 | 2 | – | –
9 | CC1OC(OC2C(Oc3c4cc5cc3Oc3ccc(cc3Cl)C(O)C3NC(=O)C(NC(=O)C5NC(=O)C(CC(N)=O)NC(=O)C(NC(=O)C5=CC(O)C(O)C(O)C5)C(O)c5ccc(c(Cl)c5)O4)c4ccc(O)c(c4)-c4c(O)cc(O)cc4C(C(=O)O)NC3=O)OC(CO)C(O)C2O)CC(C)(NCc2ccc(-c3ccc(Cl)cc3)cc2)C1O (stereo not shown) [Compound 201] | 2 | 2 | – | –
10 | CC1OC(OC2C(Oc3c4cc5cc3Oc3ccc(cc3Cl)C(O)C3NC(=O)C(NC(=O)C5NC(=O)C(CC(N)=O)NC(=O)C(NC(=O)CCC=O)C(O)c5ccc(c(Cl)c5)O4)c4ccc(O)c(c4)-c4c(O)cc(O)cc4C(C(=O)O)NC3=O)OC(CO)C(O)C2O)CC(C)(NCc2ccc(-c3ccc(Cl)cc3)cc2)C1O (stereo not shown) [Compound 204] | – | – | 2 | 2
11 | CC1OC(OC2C(Oc3c4cc5cc3Oc3ccc(cc3Cl)C(O)C3NC(=O)C(NC(=O)C5NC(=O)C(CC(N)=O)NC(=O)C(NC(=O)CS(=O)(=O)O)C(O)c5ccc(c(Cl)c5)O4)c4ccc(O)c(c4)-c4c(O)cc(O)cc4C(C(=O)O)NC3=O)OC(CO)C(O)C2O)CC(C)(NCc2ccc(-c3ccc(Cl)cc3)cc2)C1O (stereo not shown) [Compound 205] | – | – | 2 | 2
12 | CC1OC(OC2C(Oc3c4cc5cc3Oc3ccc(cc3Cl)C(O)C3NC(=O)C(NC(=O)C5NC(=O)C(CC(N)=O)NC(=O)C(NC(=O)c5c[nH]c(=O)[nH]c5=O)C(O)c5ccc(c(Cl)c5)O4)c4ccc(O)c(c4)-c4c(O)cc(O)cc4C(C(=O)O)NC3=O)OC(CO)C(O)C2O)CC(C)(NCc2ccc(-c3ccc(Cl)cc3)cc2)C1O (stereo not shown) [Compound 208] | – | – | 2 | 2
13 | CC1OC(OC2C(Oc3c4cc5cc3Oc3ccc(cc3Cl)C(O)C3NC(=O)C(NC(=O)C5NC(=O)C(CC(N)=O)NC(=O)C(NC(=O)CNC(=O)CNC(=O)CNC(=O)CNC(=O)OCc5ccccc5)C(O)c5ccc(c(Cl)c5)O4)c4ccc(O)c(c4)-c4c(O)cc(O)cc4C(C(=O)O)NC3=O)OC(CO)C(O)C2O)CC(C)(NCc2ccc(-c3ccc(Cl)cc3)cc2)C1O (stereo not shown) [Compound 214] | – | – | 2 | 2
14 | CC1OC(OC2C(Oc3c4cc5cc3Oc3ccc(cc3Cl)C(O)C3NC(=O)C(NC(=O)C5NC(=O)C(CC(N)=O)NC(=O)C(NC(=O)CNC(=O)CNC(=O)CNC(=O)OCc5ccccc5)C(O)c5ccc(c(Cl)c5)O4)c4ccc(O)c(c4)-c4c(O)cc(O)cc4C(C(=O)O)NC3=O)OC(CO)C(O)C2O)CC(C)(NCc2ccc(-c3ccc(Cl)cc3)cc2)C1O (stereo not shown) [Compound 215] | – | – | 2 | 2
15 | CC=C(N)C(=O)NC1C(=O)NC(CC(N)=O)C(=O)NC2C(=O)NC3C(=O)NC(C(=O)NC(C(=O)O)c4cc(O)cc(O)c4-c4cc3ccc4O)C(O)c3ccc(c(Cl)c3)Oc3cc2cc(c3OC2OC(CO)C(O)C(O)C2OC2CC(C)(NCc3ccc(-c4ccc(Cl)cc4)cc3)C(O)C(C)O2)Oc2ccc(cc2Cl)C1O (stereo not shown) [Compound 219] | – | – | 2 | 2
16 | CC1OC(OC2C(Oc3c4cc5cc3Oc3ccc(cc3Cl)C(O)C3NC(=O)C(NC(=O)C5NC(=O)C(CC(N)=O)NC(=O)C(NC(=O)CCNC(N)=O)C(O)c5ccc(c(Cl)c5)O4)c4ccc(O)c(c4)-c4c(O)cc(O)cc4C(C(=O)O)NC3=O)OC(CO)C(O)C2O)CC(C)(NCc2ccc(-c3ccc(Cl)cc3)cc2)C1O (stereo not shown) [Compound 221] | – | – | 2 | 2
17 | CC1OC(OC2C(Oc3c4cc5cc3Oc3ccc(cc3Cl)C(O)C3NC(=O)C(NC(=O)C5NC(=O)C(CC(N)=O)NC(=O)C(NC(=O)CON)C(O)c5ccc(c(Cl)c5)O4)c4ccc(O)c(c4)-c4c(O)cc(O)cc4C(C(=O)O)NC3=O)OC(CO)C(O)C2O)CC(C)(NCc2ccc(-c3ccc(Cl)cc3)cc2)C1O (stereo not shown) [Compound 222] | – | – | 2 | 2
18 | CC1OC(OC2C(Oc3c4cc5cc3Oc3ccc(cc3Cl)C(O)C3NC(=O)C(NC(=O)C5NC(=O)C(CC(N)=O)NC(=O)C(NC(=O)CNC(=O)CNC(=O)OC(C)(C)C)C(O)c5ccc(c(Cl)c5)O4)c4ccc(O)c(c4)-c4c(O)cc(O)cc4C(C(=O)O)NC3=O)OC(CO)C(O)C2O)CC(C)(NCc2ccc(-c3ccc(Cl)cc3)cc2)C1O (stereo not shown) [Compound 223] | – | – | 2 | 2
19 | CC1OC(OC2C(Oc3c4cc5cc3Oc3ccc(cc3Cl)C(O)C3NC(=O)C(NC(=O)C5NC(=O)C(CC(N)=O)NC(=O)C(NC(=O)c5cccnc5Sc5ccc(Cl)cc5)C(O)c5ccc(c(Cl)c5)O4)c4ccc(O)c(c4)-c4c(O)cc(O)cc4C(C(=O)O)NC3=O)OC(CO)C(O)C2O)CC(C)(NCc2ccc(-c3ccc(Cl)cc3)cc2)C1O (stereo not shown) [Compound 230] | – | – | 2 | 2
20 | C=C(C(=O)NC1C(=O)NC(CC(N)=O)C(=O)NC2C(=O)NC3C(=O)NC(C(=O)NC(C(=O)O)c4cc(O)cc(O)c4-c4cc3ccc4O)C(O)c3ccc(c(Cl)c3)Oc3cc2cc(c3OC2OC(CO)C(O)C(O)C2OC2CC(C)(NCc3ccc(-c4ccc(Cl)cc4)cc3)C(O)C(C)O2)Oc2ccc(cc2Cl)C1O)C(F)(F)F (stereo not shown) [Compound 231] | – | – | 2 | 2
21 | CC1OC(OC2C(Oc3c4cc5cc3Oc3ccc(cc3Cl)C(O)C(NC(=O)C(C)(CO)CO)C(=O)NC(CC(N)=O)C(=O)NC5C(=O)NC3C(=O)NC(C(=O)NC(C(=O)O)c5cc(O)cc(O)c5-c5cc3ccc5O)C(O)c3ccc(c(Cl)c3)O4)OC(CO)C(O)C2O)CC(C)(NCc2ccc(-c3ccc(Cl)cc3)cc2)C1O (stereo not shown) [Compound 232] | – | – | 2 | 2
22 | CC1OC(OC2C(Oc3c4cc5cc3Oc3ccc(cc3Cl)C(O)C3NC(=O)C(NC(=O)C5NC(=O)C(CC(N)=O)NC(=O)C(NC(=O)COc5cc(Cl)c(Cl)cc5Cl)C(O)c5ccc(c(Cl)c5)O4)c4ccc(O)c(c4)-c4c(O)cc(O)cc4C(C(=O)O)NC3=O)OC(CO)C(O)C2O)CC(C)(NCc2ccc(-c3ccc(Cl)cc3)cc2)C1O (stereo not shown) [Compound 233] | – | – | 2 | 2
23 | COc1ccc(C(=O)NC2C(=O)NC(CC(N)=O)C(=O)NC3C(=O)NC4C(=O)NC(C(=O)NC(C(=O)O)c5cc(O)cc(O)c5-c5cc4ccc5O)C(O)c4ccc(c(Cl)c4)Oc4cc3cc(c4OC3OC(CO)C(O)C(O)C3OC3CC(C)(NCc4ccc(-c5ccc(Cl)cc5)cc4)C(O)C(C)O3)Oc3ccc(cc3Cl)C2O)c(OC)c1 (stereo not shown) [Compound 236] | – | – | 2 | 2
